Results published in EPA's CvTdb concentration-time database.

What was measured:
[1] = test system: Rat; assay: concentration in kidney after dosing; settings: 1848 h; dosed: Perfluorooctane Sulfonate; 2 mg/kg; oral; Female; Harlan Sprague Dawley
[2] = test system: Rat; assay: concentration in plasma after dosing; settings: 24 h; dosed: Perfluorooctane Sulfonate; 2 mg/kg; oral; Female; Harlan Sprague Dawley
[3] = test system: Rat; assay: concentration in kidney after dosing; settings: 1848 h; dosed: Perfluorooctane Sulfonate; 2 mg/kg; oral; Female; Harlan Sprague Dawley; remark: listed apart in the source
[4] = test system: Rat; assay: concentration in liver after dosing; settings: 1848 h; dosed: Perfluorooctane Sulfonate; 20 mg/kg; oral; Male; Harlan Sprague Dawley
[5] = test system: Rat; assay: concentration in liver after dosing; settings: 864 h; dosed: Perfluorooctane Sulfonate; 2 mg/kg; oral; Female; Harlan Sprague Dawley
[6] = test system: Rat; assay: concentration in plasma after dosing; settings: dosed: Perfluorooctane Sulfonate, 2 mg/kg, iv, Female, F344
[7] = test system: Rat; assay: concentration in kidney after dosing; settings: 6 h; dosed: Perfluorooctane Sulfonate; 2 mg/kg; oral; Female; Harlan Sprague Dawley
[8] = test system: Rat; assay: concentration in plasma after dosing; settings: dosed: Perfluorooctane Sulfonate, 2 mg/kg, iv, Female, Harlan Sprague-Dawley
[9] = test system: Rat; assay: concentration in brain after dosing; settings: 864 h; dosed: Perfluorooctane Sulfonate; 20 mg/kg; oral; Male; Harlan Sprague Dawley
[10] = test system: Rat; assay: concentration in brain after dosing; settings: 864 h; dosed: Perfluorooctane Sulfonate; 20 mg/kg; oral; Male; Harlan Sprague Dawley; remark: listed apart in the source
[11] = test system: Rat; assay: concentration in kidney after dosing; settings: 6 h; dosed: Perfluorooctane Sulfonate; 20 mg/kg; oral; Male; Harlan Sprague Dawley
[12] = test system: Rat; assay: concentration in brain after dosing; settings: 3360 h; dosed: Perfluorooctane Sulfonate; 20 mg/kg; oral; Male; Harlan Sprague Dawley
[13] = test system: Rat; assay: concentration in kidney after dosing; settings: 3360 h; dosed: Perfluorooctane Sulfonate; 20 mg/kg; oral; Male; Harlan Sprague Dawley
[14] = test system: Rat; assay: concentration in plasma after dosing; settings: 3360 h; dosed: Perfluorooctane Sulfonate; 2 mg/kg; oral; Female; Harlan Sprague Dawley
[15] = test system: Rat; assay: concentration in plasma after dosing; settings: dosed: Perfluorooctane Sulfonate, 2 mg/kg, oral, Female, Harlan Sprague Dawley
[16] = test system: Rat; assay: concentration in plasma after dosing; settings: dosed: Perfluorooctane Sulfonate, 2 mg/kg, iv, Male, F344
[17] = test system: Rat; assay: concentration in brain after dosing; settings: 24 h; dosed: Perfluorooctane Sulfonate; 2 mg/kg; oral; Female; Harlan Sprague Dawley
[18] = test system: Rat; assay: concentration in liver after dosing; settings: 6 h; dosed: Perfluorooctane Sulfonate; 2 mg/kg; oral; Female; Harlan Sprague Dawley
[19] = test system: Rat; assay: concentration in liver after dosing; settings: 1 h; dosed: Perfluorohexanoic Acid; 80 mg/kg; oral; Male; Harlan Sprague Dawley
[20] = test system: Rat; assay: concentration in brain after dosing; settings: 1 h; dosed: Perfluorohexanoic Acid; 80 mg/kg; oral; Male; Harlan Sprague Dawley
[21] = test system: Rat; assay: concentration in plasma after dosing; settings: dosed: Perfluorohexanoic Acid, 40 mg/kg, oral, Male, Harlan Sprague Dawley
[22] = test system: Rat; assay: concentration in kidney after dosing; settings: 3 h; dosed: Perfluorohexanoic Acid; 80 mg/kg; oral; Female; Harlan Sprague Dawley
[23] = test system: Rat; assay: concentration in plasma after dosing; settings: dosed: Perfluorohexanoic Acid, 40 mg/kg, oral, Male, Harlan Sprague Dawley; remark: listed apart in the source
[24] = test system: Rat; assay: concentration in plasma after dosing; settings: dosed: Perfluorohexanoic Acid, 40 mg/kg, iv, Male, F344
[25] = test system: Rat; assay: concentration in plasma after dosing; settings: 18 h; dosed: Gemfibrozil; 50 mg/kg; oral; Male; Sprague-Dawley
[26] = test system: Rat; assay: concentration in plasma after dosing; settings: 1 h; dosed: Gemfibrozil; 50 mg/kg; oral; Male; Sprague-Dawley
[27] = test system: Rat; assay: concentration in plasma after dosing; settings: 24 h; dosed: Gemfibrozil; 100 mg/kg; oral; Male; Sprague-Dawley
[28] = test system: Rat; assay: concentration in plasma after dosing; settings: 4 h; dosed: Gemfibrozil; 4.29 mg/kg; oral; Male; Sprague-Dawley
[29] = test system: Rat; assay: concentration in plasma after dosing; settings: 0.5 h; dosed: Gemfibrozil; 100 mg/kg; oral; Male; Sprague-Dawley
[30] = test system: Rat; assay: concentration in plasma after dosing; settings: 10 min; dosed: Gemfibrozil; 100 mg/kg; oral; Male; Sprague-Dawley
[31] = test system: Rat; assay: concentration in plasma after dosing; settings: 6 h; dosed: Gemfibrozil; 50 mg/kg; oral; Male; Sprague-Dawley
[32] = test system: Rat; assay: concentration in brain after dosing; settings: 0.75 h; dosed: 2-Methyltetrahydrofuran; 40 mg/kg; iv; Male; Harlan Sprague Dawley
[33] = test system: Rat; assay: concentration in plasma after dosing; settings: 4 h; dosed: 2-Methyltetrahydrofuran; 40 mg/kg; iv; Male; Harlan Sprague Dawley
[34] = test system: Rat; assay: concentration in brain after dosing; settings: 1.5 h; dosed: 2-Methyltetrahydrofuran; 40 mg/kg; iv; Male; Harlan Sprague Dawley
[35] = test system: Rat; assay: concentration in plasma after dosing; settings: 7 min; dosed: 2-Methyltetrahydrofuran; 40 mg/kg; iv; Male; Harlan Sprague Dawley
[36] = test system: Rat; assay: concentration in brain after dosing; settings: 0.5 h; dosed: 2-Methyltetrahydrofuran; 40 mg/kg; iv; Male; Harlan Sprague Dawley
[37] = test system: Rat; assay: concentration in plasma after dosing; settings: dosed: Fluorotelomer alcohol 8+2, 12 mg/kg, oral, Male, Harlan Sprague Dawley
[38] = test system: Rat; assay: concentration in liver after dosing; settings: 0.5 h; dosed: Fluorotelomer alcohol 8+2; 24 mg/kg; oral; Male; Harlan Sprague Dawley
[39] = test system: Rat; assay: concentration in liver after dosing; settings: 6 h; dosed: Fluorotelomer alcohol 8+2; 80 mg/kg; oral; Female; Harlan Sprague Dawley

O=S(=O)([O-])C(F)(F)C(F)(F)C(F)(F)C(F)(F)C(F)(F)C(F)(F)C(F)(F)C(F)(F)F [Perfluorooctane Sulfonate]
Settings | concentration in brain [ng/g] | concentration in kidney [ng/g] | concentration in liver [ng/g] | concentration in plasma [ng/mL]
[1] | – | 860 | – | –
[2] | – | – | – | 5650
[3] | – | 2040 | – | –
[4] | – | – | 37900 | –
[5] | – | – | 8950 | –
[7] | – | 8350 | – | –
[9] | 2500 | – | – | –
[10] | 2330 | – | – | –
[11] | – | 63800 | – | –
[12] | 1260 | – | – | –
[13] | – | 4360 | – | –
[14] | – | – | – | 428
[17] | 800 | – | – | –
[18] | – | – | 24500 | –

Settings | concentration in plasma [ng/mL]
[6], 5 min | 5510
[6], 24 h | 4250
[6], 1704 h | 232
[8], 1 h | 4320
[8], 192 h | 3170
[8], 2376 h | 542
[15], 12 h | 6280
[15], 528 h | 2270
[16], 6 h | 4220
[16], 864 h | 1290
[16], 3216 h | 359

O=C(O)C(F)(F)C(F)(F)C(F)(F)C(F)(F)C(F)(F)F [Perfluorohexanoic Acid]
Settings | concentration in brain [ng/g] | concentration in kidney [ng/g] | concentration in liver [ng/g]
[19] | – | – | 83600
[20] | 2670 | – | –
[22] | – | 71400 | –

Settings | concentration in plasma [ng/mL]
[21], 1 h | 39400
[21], 24 h | 423
[23], 0.75 h | 46400
[23], 12 h | 6500
[24], 0.25 h | 19100
[24], 6 h | 2380

Cc1ccc(C)c(OCCCC(C)(C)C(=O)O)c1 [Gemfibrozil]
Settings | concentration in plasma [ng/mL]
[25] | 1100
[26] | 3370
[27] | 761
[28] | 596
[29] | 40400
[30] | 130000
[31] | 7260

CC1CCCO1 (stereo not given) [2-Methyltetrahydrofuran]
Settings | concentration in brain [ng/mL] | concentration in plasma [ng/mL]
[32] | 15800 | –
[33] | – | 1880
[34] | 2800 | –
[35] | – | 45700
[36] | 15200 | –

O=C(O)CCC(F)(F)C(F)(F)C(F)(F)C(F)(F)C(F)(F)C(F)(F)C(F)(F)F [Fluorotelomer acid 7+3]
[37]
Settings | concentration in plasma [ng/mL]
0.75 h | 274
12 h | 110

Settings | concentration in liver [ng/g]
[38] | 347
[39] | 9210
